Data taken from ChEMBL document CHEMBL1201862, “PubChem BioAssay data set” (2004).
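Briefly, cells in 96-well plates were exposed to five compound concentrations for 48 h, and endpoints were estimated by linear interpolation. The concentration for 50% growth inhibition is given as GI50.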 The source made the active and inactive calls. No stated cut-off is given here; in the data, active = GI50 up to about 1.1 µM and inactive = higher.

Experiments:
Assay in all cases: NCI anticancer screen, dose series, 48 h
786-0 = test system: 786-0
A549 = test system: A549
ACHN = test system: ACHN
CAKI-1 = test system: CAKI-1
CCRF-CEM = test system: CCRF-CEM
COLO 205 = test system: COLO 205
DLD-1 = test system: DLD-1
DMS-114 = test system: DMS-114
DMS-273 = test system: DMS-273
EKVX = test system: EKVX
HCC 2998 = test system: HCC 2998
HCT-116 = test system: HCT-116
HCT-15 = test system: HCT-15
HL-60 = test system: HL-60
HOP-62 = test system: HOP-62
HOP-92 = test system: HOP-92
HT-29 = test system: HT-29
IGROV-1 = test system: IGROV-1
K562 = test system: K562
KM-20L2 = test system: KM-20L2
KM12 = test system: KM12
LOX IMVI = test system: LOX IMVI
LXFL 529 = test system: LXFL 529
M14 = test system: M14
M19-MEL = test system: M19-MEL
MOLT-4 = test system: MOLT-4
Malme-3M = test system: Malme-3M
NCI-H226 = test system: NCI-H226
NCI-H23 = test system: NCI-H23
NCI-H460 = test system: NCI-H460
NCI-H522 = test system: NCI-H522
OVCAR-3 = test system: OVCAR-3
OVCAR-4 = test system: OVCAR-4
OVCAR-5 = test system: OVCAR-5
OVCAR-8 = test system: OVCAR-8
RPMI-8226 = test system: RPMI-8226
RXF 393 = test system: RXF 393
RXF 631 = test system: RXF 631
SF-268 = test system: SF-268
SF-295 = test system: SF-295
SF-539 = test system: SF-539
SK-MEL-28 = test system: SK-MEL-28
SK-MEL-2 = test system: SK-MEL-2
SK-MEL-5 = test system: SK-MEL-5
SK-OV-3 = test system: SK-OV-3
SN12C = test system: SN12C
SNB-19 = test system: SNB-19
SNB-75 = test system: SNB-75
SNB-78 = test system: SNB-78
SR = test system: SR
SW-620 = test system: SW-620
TK-10 = test system: TK-10
U-251 = test system: U-251
UACC-257 = test system: UACC-257
UACC-62 = test system: UACC-62
UO-31 = test system: UO-31
XF498 = test system: XF498
A498 = test system: A498
HOP-18 = test system: HOP-18

Measured: GI50

O=C(Cc1ccc(F)cc1)NC1=C(Cl)C(=O)c2ccccc2C1=O
1.31 µM: HCT-15
inactive: 786-0 6.58 µM | A549 3.62 µM | ACHN 1.47 µM | CAKI-1 4.95 µM | CCRF-CEM 1.71 µM | COLO 205 3.66 µM | DLD-1 2.18 µM | DMS-273 3.63 µM | EKVX 3.65 µM | HCC 2998 4.22 µM | HCT-116 2.36 µM | HOP-62 10 µM | HOP-92 1.69 µM | HT-29 17.3 µM | IGROV-1 2.61 µM | K562 1.54 µM | KM-20L2 17.7 µM | KM12 3.52 µM | LOX IMVI 2.95 µM | LXFL 529 2.8 µM | M14 3.16 µM | M19-MEL 3.74 µM | MOLT-4 1.79 µM | Malme-3M 2.77 µM | NCI-H226 3.4 µM | NCI-H23 1.67 µM | NCI-H460 3.47 µM | OVCAR-3 2.75 µM | OVCAR-4 2.06 µM | OVCAR-5 3.85 µM | OVCAR-8 1.92 µM | RXF 631 7.36 µM | SF-268 4.05 µM | SF-295 3.83 µM | SF-539 2.24 µM | SK-MEL-28 4.05 µM | SK-MEL-2 2.43 µM | SK-MEL-5 2.92 µM | SK-OV-3 4.94 µM | SN12C 3.38 µM | SNB-19 5.58 µM | SNB-75 2.5 µM | SNB-78 7.03 µM | SW-620 2.24 µM | TK-10 6.9 µM | U-251 3.07 µM | UACC-257 2.48 µM | UACC-62 2.53 µM | UO-31 2.51 µM | XF498 1.76 µM
active: DMS-114 0.514 µM | HL-60 0.0916 µM | NCI-H522 0.297 µM | RPMI-8226 0.262 µM | RXF 393 1.05 µM | SR 0.481 µM

O=C(NN1C(=O)CSC1c1cccc(F)c1)c1ccncc1 (stereo not drawn)
inactive: A498 > 100 µM | A549 > 100 µM | ACHN > 100 µM | CAKI-1 > 100 µM | CCRF-CEM > 100 µM | COLO 205 > 100 µM | DMS-114 > 100 µM | DMS-273 > 100 µM | EKVX > 100 µM | HCC 2998 > 100 µM | HL-60 > 100 µM | HT-29 > 100 µM | IGROV-1 > 100 µM | K562 > 100 µM | KM-20L2 > 100 µM | KM12 > 100 µM | LOX IMVI > 100 µM | LXFL 529 > 100 µM | M14 > 100 µM | MOLT-4 > 100 µM | Malme-3M > 100 µM | NCI-H23 > 100 µM | NCI-H522 > 100 µM | OVCAR-4 > 100 µM | OVCAR-5 > 100 µM | OVCAR-8 > 100 µM | RPMI-8226 > 100 µM | RXF 393 > 100 µM | RXF 631 > 100 µM | SF-268 > 100 µM | SF-295 > 100 µM | SF-539 > 100 µM | SK-MEL-28 > 100 µM | SK-MEL-2 > 100 µM | SK-MEL-5 > 100 µM | SK-OV-3 > 100 µM | SN12C > 100 µM | SNB-19 > 100 µM | SNB-75 > 100 µM | SNB-78 > 100 µM | SW-620 > 100 µM | TK-10 > 100 µM | U-251 > 100 µM | UACC-257 > 100 µM | UACC-62 > 100 µM | UO-31 > 100 µM | XF498 > 100 µM
active: HOP-18 < 0.01 µM
> 100 µM: HCT-15

Cc1cc(O)nc(CNC(=O)c2ccc3ccccc3c2)n1
inactive: 786-0 > 100 µM | A498 > 100 µM | A549 > 100 µM | ACHN > 100 µM | CAKI-1 > 100 µM | CCRF-CEM > 100 µM | COLO 205 > 100 µM | DLD-1 > 100 µM | DMS-114 > 100 µM | DMS-273 > 100 µM | EKVX > 100 µM | HCC 2998 > 100 µM | HCT-116 > 100 µM | HL-60 > 100 µM | HOP-18 > 100 µM | HOP-62 > 100 µM | HOP-92 > 100 µM | HT-29 > 100 µM | IGROV-1 > 100 µM | K562 > 100 µM | KM-20L2 > 100 µM | KM12 > 100 µM | LOX IMVI > 100 µM | LXFL 529 > 100 µM | M14 > 100 µM | M19-MEL > 100 µM | MOLT-4 > 100 µM | Malme-3M > 100 µM | NCI-H226 > 100 µM | NCI-H23 > 100 µM | NCI-H460 > 100 µM | NCI-H522 > 100 µM | OVCAR-3 > 100 µM | OVCAR-4 > 100 µM | OVCAR-5 > 100 µM | OVCAR-8 > 100 µM | RXF 393 > 100 µM | RXF 631 > 100 µM | SF-268 > 100 µM | SF-295 > 100 µM | SF-539 > 100 µM | SK-MEL-28 > 100 µM | SK-MEL-2 > 100 µM | SK-MEL-5 > 100 µM | SK-OV-3 > 100 µM | SN12C > 100 µM | SNB-19 > 100 µM | SNB-75 > 100 µM | SR > 100 µM | SW-620 > 100 µM | TK-10 > 100 µM | U-251 > 100 µM | UACC-257 > 100 µM | UACC-62 > 100 µM | UO-31 > 100 µM | XF498 > 100 µM
> 100 µM: HCT-15

CCN1C2=NC(=O)N(C)C(=O)C2(Cl)C(C(SC)S(=O)(=O)c2ccc(C)cc2)c2ccccc21 (stereo not drawn)
inactive: 786-0 25.1 µM | A498 > 100 µM | A549 85.1 µM | CAKI-1 34 µM | CCRF-CEM 5.62 µM | COLO 205 31.6 µM | DLD-1 33.4 µM | DMS-114 41.1 µM | DMS-273 31.6 µM | EKVX > 100 µM | HCC 2998 > 100 µM | HCT-116 20.1 µM | HL-60 4.2 µM | HOP-62 > 100 µM | HOP-92 30.6 µM | HT-29 34.8 µM | IGROV-1 76.9 µM | K562 20.7 µM | KM-20L2 57.8 µM | LOX IMVI 31.3 µM | LXFL 529 23.3 µM | M14 24.2 µM | M19-MEL 24.7 µM | MOLT-4 3.7 µM | Malme-3M 47.3 µM | NCI-H226 32.4 µM | NCI-H23 20 µM | NCI-H460 83.4 µM | NCI-H522 11.8 µM | OVCAR-3 24.1 µM | OVCAR-4 22.9 µM | OVCAR-5 > 100 µM | OVCAR-8 21.2 µM | RPMI-8226 12.7 µM | RXF 631 21.4 µM | SF-268 39.2 µM | SF-295 51.8 µM | SF-539 37.5 µM | SK-MEL-28 24.3 µM | SK-MEL-2 55.3 µM | SK-MEL-5 35.6 µM | SK-OV-3 > 100 µM | SN12C 61 µM | SNB-19 51.9 µM | SNB-75 20.7 µM | SNB-78 24.2 µM | SW-620 31.6 µM | TK-10 > 100 µM | U-251 79.8 µM | UACC-257 23.6 µM | UACC-62 44.7 µM | UO-31 19.9 µM | XF498 49.5 µM

CCOC(=O)C(C(O)c1ccc([N+](=O)[O-])cc1)P(=O)(OCC)OCC (stereo not drawn)
> 100 µM: HCT-15
inactive: 786-0 > 100 µM | A498 > 100 µM | A549 > 100 µM | ACHN > 100 µM | CAKI-1 > 100 µM | CCRF-CEM 35.5 µM | DLD-1 > 100 µM | DMS-273 > 100 µM | EKVX > 100 µM | HCC 2998 > 100 µM | HCT-116 > 100 µM | HL-60 16.7 µM | HOP-18 > 100 µM | HOP-62 > 100 µM | HOP-92 34 µM | HT-29 > 100 µM | IGROV-1 > 100 µM | K562 31.3 µM | KM-20L2 > 100 µM | KM12 > 100 µM | LOX IMVI 72.9 µM | LXFL 529 > 100 µM | M14 > 100 µM | M19-MEL 77.6 µM | MOLT-4 57.9 µM | Malme-3M > 100 µM | NCI-H226 > 100 µM | NCI-H23 > 100 µM | NCI-H460 > 100 µM | NCI-H522 29.2 µM | OVCAR-3 > 100 µM | OVCAR-4 > 100 µM | OVCAR-5 > 100 µM | OVCAR-8 95.1 µM | RPMI-8226 32.9 µM | RXF 393 36.5 µM | RXF 631 > 100 µM | SF-268 > 100 µM | SF-295 > 100 µM | SF-539 > 100 µM | SK-MEL-28 > 100 µM | SK-MEL-2 > 100 µM | SK-MEL-5 99.8 µM | SN12C > 100 µM | SNB-19 > 100 µM | SNB-75 35.4 µM | SW-620 57.3 µM | TK-10 > 100 µM | U-251 > 100 µM | UACC-62 52.1 µM | XF498 > 100 µM
